Test results taken from US9113629B2, “4-amino-6-(4-substituted-phenyl)-picolinates and 6-amino-2-(4-substituted-phenyl)-pyrimidine-4-carboxylates and their use as herbicides” (DOW AGROSCIENCES LLC, priority 2013, dated 2015).
Where two headings read alike, the source gives them in different places.

How the values were obtained:
[1] = test system: Key Grass and Sedge Weeds as well as Grass Crops; experiment: Post-emergent Test II herbicidal activity (Table 6); assay type: in vivo; conditions: post-emergence, 336 h; for pest or weed control at 70 g/ha: application rate 70 g ai/ha; for pest or weed control at 140 g/ha: application rate 140 g ai/ha
Summary of the method: (§1)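 Test species were raised 7–21 d under greenhouse conditions until reaching the first or second true leaf, sprayed with formulated compound at 187 L/ha, and kept subirrigated to avoid wash-off. Fourteen days later, damage was rated visually on a 0–100% scale against untreated plants.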

[2] = test system: Key Broadleaf Weed and Crop Species; experiment: Post-emergent Test II herbicidal activity (Table 5); assay type: in vivo; conditions: post-emergence, 336 h, post-emergent, 14 days after application; for pest or weed control at 70 g/ha: 70 g ai/ha; for pest or weed control at 140 g/ha: 140 g ai/ha
Summary of the method: as §1

[3] = CYPES: yellow nutsedge (Cyperus esculentus), read-out: Visual Growth Reduction (%) 14 Days After Application, CYPES
[4] = DIGSA: crabgrass (Digitaria sanguinalis), read-out: Visual Growth Reduction (%) 14 Days After Application, DIGSA
[5] = ECHCG: barnyardgrass (Echinochloa crus-galli), read-out: Visual Growth Reduction (%) 14 Days After Application, ECHCG
[6] = ORYSA: rice (Oryza sativa), read-out: Visual Growth Reduction (%) 14 Days After Application, ORYSA
[7] = SETFA: giant foxtail (Setaria faberi), read-out: Visual Growth Reduction (%) 14 Days After Application, SETFA
[8] = SORVU: grain sorghum (Sorghum vulgare), read-out: Visual Growth Reduction (%) 14 Days After Application, SORVU
[9] = ZEAMX: maize, corn (Zea mays), read-out: Visual Growth Reduction (%) 14 Days After Application, ZEAMX
[10] = ABUTH: velvetleaf (Abutilon theophrasti), read-out: Visual Growth Reduction (%) 14 Days After Application ABUTH
[11] = AMARE: redroot pigweed (Amaranthus retroflexus), read-out: Visual Growth Reduction (%) 14 Days After Application AMARE
[12] = BRSNN: oilseed-rape, canola (Brassica napus), read-out: Visual Growth Reduction (%) 14 Days After Application BRSNN
[13] = CHEAL: lambsquarters (Chenopodium album), read-out: Visual Growth Reduction (%) 14 Days After Application CHEAL
[14] = EPHHL: wild poinsettia (Euphorbia heterophylla), read-out: Visual Growth Reduction (%) 14 Days After Application EPHHL
[15] = HELAN: sunflower (Helianthus annuus), read-out: Visual Growth Reduction (%) 14 Days After Application HELAN
[16] = VIOTR: wild pansy (Viola tricolor), read-out: Visual Growth Reduction (%) 14 Days After Application VIOTR

C=Cc1c(N)nc(-c2ccc(C#N)cc2F)nc1C(=O)OC [Compound 98, Methyl 6-amino-2-(4-cyano-2-fluorophenyl)-5-vinylpyrimidine-4-carboxylate]
0 to 29%: pest or weed control at 70 g/ha ([1]; Triticum aestivum, TRZSS (wheat), read-out: Visual Growth Reduction (%) 14 Days After Application, TRZSS) | pest or weed control at 70 g/ha [1, 3] | pest or weed control at 140 g/ha [1, 3] | pest or weed control at 70 g/ha [1, 4] | pest or weed control at 140 g/ha [1, 4] | pest or weed control at 70 g/ha [1, 5] | pest or weed control at 140 g/ha [1, 5] | pest or weed control at 70 g/ha [1, 6] | pest or weed control at 140 g/ha [1, 6] | pest or weed control at 70 g/ha [1, 7] | pest or weed control at 140 g/ha [1, 7] | pest or weed control at 70 g/ha [1, 8] | pest or weed control at 140 g/ha [1, 8] | pest or weed control at 140 g/ha ([1]; TRZSS (wheat, Triticum aestivum), read-out: Visual Growth Reduction (%) 14 Days After Application, TRZSS) | pest or weed control at 70 g/ha [1, 9] | pest or weed control at 140 g/ha [1, 9] | pest or weed control at 70 g/ha [2, 10] | pest or weed control at 140 g/ha [2, 10] | pest or weed control at 70 g/ha [2, 11] | pest or weed control at 140 g/ha [2, 11] | pest or weed control at 70 g/ha [2, 12] | pest or weed control at 140 g/ha [2, 12] | pest or weed control at 70 g/ha [2, 13] | pest or weed control at 140 g/ha [2, 13] | pest or weed control at 70 g/ha [2, 14] | pest or weed control at 140 g/ha [2, 14] | pest or weed control at 70 g/ha [2, 15] | pest or weed control at 140 g/ha [2, 15] | pest or weed control at 70 g/ha [2, 16] | pest or weed control at 140 g/ha [2, 16]
